Values belong to the molecule of their own block, whether it stands above or below them.
What was measured:
Format in all cases: cell-based
glucocorticoid receptor [1] = biological target: T1, glucocorticoid receptor (Homo sapiens, UniProt P04150); assay: Measurement 1 of glucocorticoid receptor reporter gene GRE activity; conditions: HEK293 transfected with pGL5 and pBIND-GR, 24 hours
T1 construct: expressed in transfected cells; host or cells: HEK293
T1 sequence (P04150 1-777): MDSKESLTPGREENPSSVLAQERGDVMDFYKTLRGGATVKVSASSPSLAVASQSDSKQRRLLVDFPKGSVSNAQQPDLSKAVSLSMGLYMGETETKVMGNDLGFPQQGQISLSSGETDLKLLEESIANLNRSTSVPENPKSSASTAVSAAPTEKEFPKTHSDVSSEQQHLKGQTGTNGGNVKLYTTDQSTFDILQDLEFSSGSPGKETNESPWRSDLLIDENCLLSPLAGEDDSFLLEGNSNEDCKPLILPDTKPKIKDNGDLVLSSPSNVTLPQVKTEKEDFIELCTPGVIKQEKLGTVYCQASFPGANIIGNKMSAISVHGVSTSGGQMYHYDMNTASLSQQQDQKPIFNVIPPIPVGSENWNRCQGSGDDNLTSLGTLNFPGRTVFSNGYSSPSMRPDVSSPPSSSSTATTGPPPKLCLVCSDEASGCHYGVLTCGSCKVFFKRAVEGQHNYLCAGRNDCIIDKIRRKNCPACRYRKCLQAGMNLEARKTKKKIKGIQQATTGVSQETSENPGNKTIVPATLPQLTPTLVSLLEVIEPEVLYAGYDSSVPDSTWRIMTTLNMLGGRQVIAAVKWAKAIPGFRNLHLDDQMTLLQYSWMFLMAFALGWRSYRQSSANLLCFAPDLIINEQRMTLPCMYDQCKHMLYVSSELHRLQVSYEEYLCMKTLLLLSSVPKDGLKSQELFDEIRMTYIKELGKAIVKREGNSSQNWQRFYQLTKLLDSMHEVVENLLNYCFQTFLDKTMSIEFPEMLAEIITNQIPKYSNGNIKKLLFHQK
Protocol: (§1) HEK293 cells were cultured in DMEM+10% FBS medium in a carbon dioxide incubator humidified at 37° C. at 5% carbon dioxide.
(§2) The prepared transfection mixtures were added to 10 mL of the cell density-adjusted resuspension, mixed well by turning the mixtures upside down, and seeded into a 96-well plate at a volume of 100 μL/well.
(§3) The test plate was detected using the Dual-Glo Luciferase Assay System kit from Promega, and the fluorescence signal of Firefly Luciferase and the fluorescence signal of Renilla Luciferase were read using Enspire, respectively.
The final measurement value was a normalized value “F/R” obtained by dividing the Firefly Luciferase fluorescent signal by the Renilla Luciferase fluorescent signal.
The data were copied and pasted into Excel, and the activation rate was obtained through an equation.
The data were imported into MS Excel and subjected to curve fitting by using XLFit excel add-in version 5.4.0.8 to obtain an EC50 value.
(§4) Y is the agonism and X is the concentration of the compound.

human PBMC cells = assay: IFN-α secretion from PBMC under R848 stimulation (compounds); conditions: R848 5 μM, 24 hours, mean ± standard deviation
Protocol: The compounds of the present application were tested for their inhibitory effect on the production of peripheral blood monocytes. The peripheral blood monocytes were treated in vitro with the ligand-drug conjugate at different concentrations, and IFNα and TNFα generated by the peripheral blood monocytes were quantitatively detected after a certain time. The compounds of the present invention were evaluated for in-vitro activity.
The cryopreserved human PBMC cells were resuspended in a complete medium and counted, and the cell suspension was adjusted to 2.5×10*6 cells/mL with the culture medium. After the suspension was centrifuged to collect the cells the next day, the cells were resuspended using fresh culture medium. Test compounds were diluted to 4-fold final concentration in cell culture medium, 50 μL of the compounds were added into a 96-well cell plate, and 100 μL of diluted cells ([…]) were added into each well of the 96-well plate containing the compounds, followed by addition of 50 μL R848 to a final concentration of 5 μM. The cell plate was incubated at 37° C. with 5% CO2 for 24 hours. The supernatant was collected, and the TNF-α and IFN-α concentration levels in the supernatant were detected using an ELISA kit.
50 μL of biotinylated antibody working solution was added into each well. After mixing well, the plate was covered with the plate-sealing membrane and incubated at room temperature for 3 hours. […] The procedure was repeated for 3 times. 100 μL of Streptavidin-HRP working solution was added into each well. The plate was covered with the plate-sealing membrane and incubated at room temperature for 20 minutes. The plate was washed for 3 times, 100 μL of TMB liquid was added into each well, and the plate was incubated for 25 minutes at room temperature (18-25° C.) in the dark. The reaction was stopped by adding 100 μL stop solution rapidly to each well. The reading at a wavelength of 450 nm was detected by an M2e instrument within 10 minutes after termination.
The contents of TNF-α and IFN-α were calculated from the OD450 values.

glucocorticoid receptor [2] = biological target: T1, glucocorticoid receptor; assay: Measurement 2 of glucocorticoid receptor reporter gene GRE activity (HEK293 GRE cells); conditions: 24 hours
MR = biological target: T2, MR (Homo sapiens, UniProt P08235); assay: MR luciferase reporter gene experiment; conditions: HEK293 transfected with pBIND-MR
T2 construct: expressed in transfected cells; host or cells: HEK293
T2 sequence (P08235 1-984): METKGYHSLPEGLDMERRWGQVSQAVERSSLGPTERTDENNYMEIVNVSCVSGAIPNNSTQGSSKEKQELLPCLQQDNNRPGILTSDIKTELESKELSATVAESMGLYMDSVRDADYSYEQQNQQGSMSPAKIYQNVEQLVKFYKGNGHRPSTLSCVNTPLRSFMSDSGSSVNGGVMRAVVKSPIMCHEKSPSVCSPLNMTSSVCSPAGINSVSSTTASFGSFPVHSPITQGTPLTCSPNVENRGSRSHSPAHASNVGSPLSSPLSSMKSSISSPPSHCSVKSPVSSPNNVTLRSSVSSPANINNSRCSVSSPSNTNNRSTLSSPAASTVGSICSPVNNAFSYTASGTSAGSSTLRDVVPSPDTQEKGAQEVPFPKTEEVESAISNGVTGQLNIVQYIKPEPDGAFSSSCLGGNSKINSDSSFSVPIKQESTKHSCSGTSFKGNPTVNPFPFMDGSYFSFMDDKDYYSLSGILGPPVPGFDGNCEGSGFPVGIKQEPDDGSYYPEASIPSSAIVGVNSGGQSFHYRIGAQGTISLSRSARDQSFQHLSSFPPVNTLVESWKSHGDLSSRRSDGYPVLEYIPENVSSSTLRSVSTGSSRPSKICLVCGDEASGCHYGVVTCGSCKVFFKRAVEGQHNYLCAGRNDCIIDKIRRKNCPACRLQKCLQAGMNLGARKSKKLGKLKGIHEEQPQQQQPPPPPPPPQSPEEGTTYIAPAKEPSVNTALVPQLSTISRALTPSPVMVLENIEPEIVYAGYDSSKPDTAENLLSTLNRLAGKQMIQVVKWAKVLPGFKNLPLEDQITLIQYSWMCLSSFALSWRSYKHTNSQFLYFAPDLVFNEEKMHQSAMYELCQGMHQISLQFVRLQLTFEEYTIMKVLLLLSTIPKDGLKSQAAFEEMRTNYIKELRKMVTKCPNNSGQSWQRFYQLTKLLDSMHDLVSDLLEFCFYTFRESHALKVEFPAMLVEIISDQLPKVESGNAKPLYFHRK
Protocol: as §1
(§5) • 1) HEK293 cells were trypsinized, and the HEK293 cell resuspension was adjusted to 200,000 cell/mL in medium (96 well plate: 100 μL/well). • 2) Transfection reagent mixtures were prepared according to the table below, mixed well and left at room temperature for 20 minutes.
as §2, with “• 3) The” for “The”, “μL/well. • 4) The 96-well plate was incubated in a humidified incubator at 37° C. and 5% carbon dioxide for 24 hours.” for “μL/well.”
as §3, §4

ERα = biological target: T3, ERα (Homo sapiens, UniProt P03372); assay: ERα luciferase reporter gene experiment; conditions: HEK293 transfected with pBIND-ERα
T3 sequence (P03372 311-547 limits assumed): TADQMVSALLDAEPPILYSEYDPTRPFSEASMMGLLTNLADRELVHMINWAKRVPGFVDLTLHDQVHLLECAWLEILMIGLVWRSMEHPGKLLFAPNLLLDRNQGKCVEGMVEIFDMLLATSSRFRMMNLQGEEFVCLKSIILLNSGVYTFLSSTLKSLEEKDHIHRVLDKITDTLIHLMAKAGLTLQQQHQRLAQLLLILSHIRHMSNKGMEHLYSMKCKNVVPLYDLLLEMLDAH
Protocol: as §1, §5
as §2, with “• 3) The” for “The”, “μL/well. • 4) The 96-well plate was incubated in a humidified incubator at 37° C. and 5% carbon dioxide for 24 hours.” for “μL/well.”
as §3, §4

EC50 (glucocorticoid receptor [1]): 1.42 nM
SMILES: C[C@]12C=CC(=O)C=C1CC[C@@H]1[C@@H]2[C@@H](O)C[C@@]2(C)[C@H]1C[C@H]1O[C@H](c3ccc(Cc4ccc(CO)cc4)cc3)O[C@]12C(=O)CO [Compound 4S]

SMILES: C[C@]12C=CC(=O)C=C1CC[C@@H]1[C@@H]2[C@@H](O)C[C@@]2(C)[C@H]1C[C@H]1O[C@@H](c3ccc(Cc4ccc(CO)c(N)c4)cc3)O[C@]12C(=O)CO [Compound 6]
IFN-α secretion (pg/mL) from PBMC under R848 stimulation (human PBMC cells; compound 4 nM): 99.8 ± +5.7 pg/mL
IFN-α secretion (pg/mL) from PBMC under R848 stimulation (human PBMC cells; compound 20 nM): 45.9 ± 45.9 pg/mL
IFN-α secretion (pg/mL) from PBMC under R848 stimulation (human PBMC cells; compound 100 nM): 6.9 ± 6.9 pg/mL
EC50 (glucocorticoid receptor [2]): 0.12 nM

EC50 (MR): > 1000 nM
EC50 (ERα): > 1000 nM
SMILES: C[C@]12C=CC(=O)C=C1CC[C@@H]1[C@@H]2[C@@H](O)C[C@@]2(C)[C@H]1C[C@H]1O[C@@H](c3ccc(Cc4cccc(CO)c4)cc3)O[C@]12C(=O)CO [Compound 3]

From patent US20250002527A1, “STEROID COMPOUND AND CONJUGATE THEREOF” (DUALITY BIOLOGICS (SUZHOU) CO., LTD., priority 2021, published 2025)
